Test results reported in ChEMBL document CHEMBL1201862, “PubChem BioAssay data set” (2004).
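Each compound was tested at five concentrations against cells in 96-well plates for 48 hours. The concentration for 50% growth inhibition is given as GI50.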 Calls of active or inactive are those of the source. Cut-off read from the data, not from the text of the source: active = GI50 up to about 1.1 µM and inactive = higher.

Columns and labels:
Test in all cases: NCI-60 cell line screen, 48 h
[1] = system: 786-0
[2] = system: A498
[3] = system: A549
[4] = system: ACHN
[5] = system: BT-549
[6] = system: CAKI-1
[7] = system: CCRF-CEM
[8] = system: COLO 205
[9] = system: DU-145
[10] = system: EKVX
[11] = system: HCC 2998
[12] = system: HCT-116
[13] = system: HCT-15
[14] = system: HL-60
[15] = system: HOP-62
[16] = system: HOP-92
[17] = system: HT-29
[18] = system: Hs-578T
[19] = system: IGROV-1
[20] = system: K562
[21] = system: KM12
[22] = system: LOX IMVI
[23] = system: M14
[24] = system: MCF7
[25] = system: MDA-MB-231
[26] = system: MDA-MB-435
[27] = system: MDA-N
[28] = system: MOLT-4
[29] = system: Malme-3M
[30] = system: NCI-H226
[31] = system: NCI-H23
[32] = system: NCI-H460
[33] = system: NCI-H522
[34] = system: NCI/ADR-RES
[35] = system: OVCAR-3
[36] = system: OVCAR-4
[37] = system: OVCAR-5
[38] = system: OVCAR-8
[39] = system: PC-3
[40] = system: RPMI-8226
[41] = system: RXF 393
[42] = system: SF-268
[43] = system: SF-295
[44] = system: SF-539
[45] = system: SK-MEL-28
[46] = system: SK-MEL-2
[47] = system: SK-MEL-5
[48] = system: SK-OV-3
[49] = system: SN12C
[50] = system: SNB-19
[51] = system: SNB-75
[52] = system: SR
[53] = system: SW-620
[54] = system: T47D
[55] = system: TK-10
[56] = system: U-251
[57] = system: UACC-257
[58] = system: UACC-62
[59] = system: UO-31

## COc1cc(CCNC2=CC(=O)c3ncccc3C2=O)ccc1O
[1]
  GI50: 4.2 µM (inactive)
[2]
  GI50: 16.6 µM (inactive)
[3]
  GI50: 2.1 µM (inactive)
[4]
  GI50: 4.71 µM (inactive)
[5]
  GI50: 1.46 µM (inactive)
[6]
  GI50: 3.94 µM (inactive)
[7]
  GI50: 3.56 µM (inactive)
[8]
  GI50: 18.6 µM (inactive)
[9]
  GI50: 3.6 µM (inactive)
[10]
  GI50: 8.85 µM (inactive)
[11]
  GI50: 4.23 µM (inactive)
[12]
  GI50: 3.17 µM (inactive)
[13]
  GI50: 1.94 µM
[14]
  GI50: 3.01 µM (inactive)
[15]
  GI50: 2.39 µM (inactive)
[16]
  GI50: 19.2 µM (inactive)
[17]
  GI50: 4.2 µM (inactive)
[18]
  GI50: 2.36 µM (inactive)
[19]
  GI50: 2.29 µM (inactive)
[20]
  GI50: 2.21 µM (inactive)
[21]
  GI50: 5.25 µM (inactive)
[22]
  GI50: 0.65 µM (active)
[23]
  GI50: 1.71 µM (inactive)
[24]
  GI50: 2.44 µM (inactive)
[25]
  GI50: 2.37 µM (inactive)
[26]
  GI50: 1.44 µM (inactive)
[27]
  GI50: 1.37 µM (inactive)
[28]
  GI50: 2.99 µM (inactive)
[29]
  GI50: 0.753 µM (active)
[30]
  GI50: 2.7 µM (inactive)
[31]
  GI50: 0.828 µM (active)
[32]
  GI50: 1.02 µM (active)
[33]
  GI50: 2.08 µM (inactive)
[34]
  GI50: 2.93 µM (inactive)
[35]
  GI50: 1.22 µM (inactive)
[36]
  GI50: 4.79 µM (inactive)
[37]
  GI50: 8.91 µM (inactive)
[38]
  GI50: 2.41 µM (inactive)
[39]
  GI50: 2.65 µM (inactive)
[40]
  GI50: 6.76 µM (inactive)
[41]
  GI50: 5.45 µM (inactive)
[42]
  GI50: 8.11 µM (inactive)
[43]
  GI50: 1.6 µM (inactive)
[44]
  GI50: 3.04 µM (inactive)
[45]
  GI50: 2 µM (inactive)
[46]
  GI50: 2.53 µM (inactive)
[47]
  GI50: 0.54 µM (active)
[48]
  GI50: 12.6 µM (inactive)
[49]
  GI50: 1.97 µM (inactive)
[50]
  GI50: 3.48 µM (inactive)
[51]
  GI50: 1.63 µM (inactive)
[52]
  GI50: 3.48 µM (inactive)
[53]
  GI50: 2.84 µM (inactive)
[54]
  GI50: 21.8 µM (inactive)
[55]
  GI50: 26.9 µM (inactive)
[56]
  GI50: 2.09 µM (inactive)
[57]
  GI50: 1.9 µM (inactive)
[58]
  GI50: 1.96 µM (inactive)
[59]
  GI50: 5.3 µM (inactive)

## CCSc1c2cc(OC)ccc2nc2ccc(OC)cc12
[1]
  GI50: 16 µM (inactive)
[2]
  GI50: 9.4 µM (inactive)
[3]
  GI50: 25.6 µM (inactive)
[4]
  GI50: 18.6 µM (inactive)
[5]
  GI50: 23.7 µM (inactive)
[6]
  GI50: 9.27 µM (inactive)
[7]
  GI50: 5.56 µM (inactive)
[8]
  GI50: 7.26 µM (inactive)
[9]
  GI50: 18.2 µM (inactive)
[10]
  GI50: 9.84 µM (inactive)
[11]
  GI50: 7.53 µM (inactive)
[12]
  GI50: 6.05 µM (inactive)
[13]
  GI50: 8.34 µM
[14]
  GI50: 2.62 µM (inactive)
[15]
  GI50: 19.1 µM (inactive)
[16]
  GI50: > 60.8 µM (inactive)
[17]
  GI50: 17.8 µM (inactive)
[18]
  GI50: > 100 µM (inactive)
[19]
  GI50: 18.3 µM (inactive)
[20]
  GI50: 5.74 µM (inactive)
[21]
  GI50: 11.2 µM (inactive)
[22]
  GI50: 13.2 µM (inactive)
[23]
  GI50: 11.9 µM (inactive)
[24]
  GI50: 4.99 µM (inactive)
[25]
  GI50: 8.57 µM (inactive)
[26]
  GI50: 5.13 µM (inactive)
[27]
  GI50: 5.24 µM (inactive)
[28]
  GI50: 3.22 µM (inactive)
[29]
  GI50: 13.7 µM (inactive)
[30]
  GI50: 11.9 µM (inactive)
[31]
  GI50: 9.44 µM (inactive)
[32]
  GI50: 13.2 µM (inactive)
[33]
  GI50: 9.33 µM (inactive)
[34]
  GI50: 12.1 µM (inactive)
[35]
  GI50: 16.9 µM (inactive)
[36]
  GI50: 11.7 µM (inactive)
[37]
  GI50: 8.09 µM (inactive)
[38]
  GI50: 16.4 µM (inactive)
[39]
  GI50: 10.7 µM (inactive)
[40]
  GI50: 4.24 µM (inactive)
[41]
  GI50: 11.6 µM (inactive)
[42]
  GI50: 10.9 µM (inactive)
[43]
  GI50: 22.4 µM (inactive)
[44]
  GI50: 15.3 µM (inactive)
[45]
  GI50: 14.9 µM (inactive)
[46]
  GI50: 18.8 µM (inactive)
[47]
  GI50: 6.65 µM (inactive)
[48]
  GI50: 23.3 µM (inactive)
[49]
  GI50: 14.3 µM (inactive)
[50]
  GI50: 26.2 µM (inactive)
[51]
  GI50: 6.73 µM (inactive)
[52]
  GI50: 2.76 µM (inactive)
[53]
  GI50: 17.7 µM (inactive)
[54]
  GI50: 8.87 µM (inactive)
[55]
  GI50: 9.64 µM (inactive)
[56]
  GI50: 12.5 µM (inactive)
[57]
  GI50: 9.98 µM (inactive)
[58]
  GI50: 10.9 µM (inactive)
[59]
  GI50: 12.6 µM (inactive)

## O=c1c2cc(-c3ccccc3)sc2nc2n1N=C(c1ccccc1)CS2
[1]
  GI50: 13.8 µM (inactive)
[2]
  GI50: 21.4 µM (inactive)
[3]
  GI50: 21.4 µM (inactive)
[4]
  GI50: 11.4 µM (inactive)
[5]
  GI50: 18.4 µM (inactive)
[6]
  GI50: 13.5 µM (inactive)
[7]
  GI50: 57.7 µM (inactive)
[8]
  GI50: 79.3 µM (inactive)
[9]
  GI50: 94.4 µM (inactive)
[10]
  GI50: 24.9 µM (inactive)
[11]
  GI50: 36.5 µM (inactive)
[12]
  GI50: 34.8 µM (inactive)
[13]
  GI50: 84.3 µM
[14]
  GI50: > 100 µM (inactive)
[15]
  GI50: 5.02 µM (inactive)
[16]
  GI50: 12.1 µM (inactive)
[17]
  GI50: > 10 µM (inactive)
[18]
  GI50: 8.63 µM (inactive)
[19]
  GI50: > 10 µM (inactive)
[20]
  GI50: > 100 µM (inactive)
[21]
  GI50: 31 µM (inactive)
[22]
  GI50: 27.3 µM (inactive)
[24]
  GI50: 14.6 µM (inactive)
[25]
  GI50: 39.8 µM (inactive)
[26]
  GI50: 37.5 µM (inactive)
[27]
  GI50: 34.9 µM (inactive)
[28]
  GI50: > 100 µM (inactive)
[29]
  GI50: 33.3 µM (inactive)
[30]
  GI50: 30.6 µM (inactive)
[31]
  GI50: 76 µM (inactive)
[32]
  GI50: 25.1 µM (inactive)
[33]
  GI50: 22.4 µM (inactive)
[34]
  GI50: 13.4 µM (inactive)
[35]
  GI50: 18.2 µM (inactive)
[36]
  GI50: 15.8 µM (inactive)
[37]
  GI50: > 100 µM (inactive)
[38]
  GI50: 32.1 µM (inactive)
[39]
  GI50: 28.9 µM (inactive)
[40]
  GI50: > 100 µM (inactive)
[41]
  GI50: > 10 µM (inactive)
[42]
  GI50: 24.3 µM (inactive)
[43]
  GI50: 15.5 µM (inactive)
[44]
  GI50: 27.9 µM (inactive)
[45]
  GI50: 23.6 µM (inactive)
[47]
  GI50: 20.6 µM (inactive)
[48]
  GI50: 10.6 µM (inactive)
[49]
  GI50: 27 µM (inactive)
[51]
  GI50: 19.1 µM (inactive)
[52]
  GI50: > 100 µM (inactive)
[53]
  GI50: 69.5 µM (inactive)
[54]
  GI50: 9.55 µM (inactive)
[55]
  GI50: 40.3 µM (inactive)
[56]
  GI50: 19.7 µM (inactive)
[57]
  GI50: 24.1 µM (inactive)
[58]
  GI50: 12.4 µM (inactive)
[59]
  GI50: 62.2 µM (inactive)
